Experimental findings from US5780472A, “Piperazine derivatives and methods for the preparation thereof and compositions containing the same” (Samjin Pharmaceuticazl Co., Ltd., priority 1995, dated 1998) are described below.

Converted amounts (≈) assume the structure as drawn.

Series [1] relates to P388 (mouse lymphoid neoplasma cell). Description: In vitro antitumor effects against animal leukemia cells (dye exclusion assay), P388. The series is classed as cell-based. Particulars: Mus musculus, P388, 48 h, 50% cell growth inhibition, 37° C., trypan blue, read-out: ED50 (the source's name). The protocol:
P388 (mouse lymphoid neoplasma cell)
(§1) B. Method of Experiment(Dye Exclusion Assay)
(§2) 2) Sample drugs diluted with log dose were added into the cells, and it were cultured at 37° C., for 48 hours, in […] incubater, and then viable cell number was measured, Viable cell number was measured with dye exclusion test using trypan blue.

Series [2] has as its system L1210 and P388 mouse cancer cells. As to the kind of experiment: In vitro antitumor activity against L1210 and P388 compared with mitomycin C (dye exclusion assay). The series is classed as cell-based. As to conditions: in words. Here is the method: as §1
1) L-1210 and P388 cells that were cultured in RPMI 1640 media containing 10% FBS were regulated as the cell concentration of 1×10^6 cells/ml.
as §2
3) The concentration of sample compounds of 50% cell growth inhibition compared with standard group was determined as IC50.

Series [3] deals with L1210 (mouse leukemia cell). Description: In vitro antitumor effects against animal leukemia cells (dye exclusion assay), L1210. The series is classed as cell-based. Particulars: Mus musculus, L1210, 48 h, 50% cell growth inhibition, 37° C., trypan blue, read-out: ED50 (the source's name). The protocol: L1210(mouse leukemia cell)
as §1, §2

Series [4] deals with 5 kinds of human solid cancer cell lines. Description: In vitro antitumor activity against 5 human solid cancer cell lines compared with cisplatin (SRB assay). Type of series: cell-based. As to conditions: in words. Here is the method: Antitumor activities of the compounds of present invention were tested. Antitumor activities of compounds of the present invention were tested in vitro against 5 kinds of human tumor cell lines and 2 kinds of leukemia tumor cell lines. The method of in vitro test is as follows.
B. Method of test(SRB Assay Method)
a. Human solid tumor cell lines, […](non-small lung cell), SKMEL-2(melanoma), HCT-15(colon), SKOV-3(ovarian), XF-498(CNS) were cultured at 37° C., in 5% CO2 incubater using the RPMI 1640 media containing 10% FBS, while they were transfer-cultured successively once or twice per week. Cell cultures were dissolved into the solution of 0.25% trypsin and 3 mM CDTA PBS(-) and then cells were separated from media which the cells were sticked on.
b. 5×10^3 -2×10^4 cells were added into each well of 96-well plate and cultured in 5% CO2 incubater, at 37° C., for 24 hours.
c. Each sample drugs was dissolved in a small quantity of DMSO, and diluted to concentrations prescribed in experiment with media, and then the final concentration of DMSO was controlled below 0.5%.
d. A medium of each well cultured for 24 hours as above b., was removed by aspiration. 200 μl of drug samples prepared in c. was added into each well and the wells were cultured for 48 hours. Tz(time zero) plates were collected at the point of time drugs were added.
e. After Tz plates and plates were treated with cell fixing by TCA of SRB assay method, staining of 0.4% SRB solution, washing with 1% acetic acid, OD values were measured at 520 nm, following elution of dye with 10 mM Tris solution.
e. If T≥Tz, cellular response function was calculated with 100×(T-Tz)/(C-Tz), and if T<Tz, with 100×(T-Tz)/Tz.
(The SRB assay estimates cell density from bound dye.)

The subject of series [5] is ICR mice. As to the kind of experiment: Acute toxicity test (LD50), Litchfield-Wilcoxon method. Type of series: in vivo, mouse. Set-up: unit not given here. As to conditions: male ICR mice, 14 days.

Consider `CCc1cc(NC(=O)N2CCN(c3cc(F)cc(F)c3)CC2)c(OC)nc1C` [Example 13, 1-[(5-ethyl-2-methoxy-6-methylpyridine-3-yl)aminocarbonyl]-4-(3,5-difluorophenyl)piperazine], for which the IC50 amounted to 1.6 µg/mL (≈ 4.1 µM) in series [1] and 1.7 µg/mL (≈ 4.35 µM) in series [3]. In addition, the “antitumor activities compared with mitomycin C” value in series [2] is “same or more excellent antitumor activities”. Further, the “antitumor activities compared with cisplatin” value in series [4] is reported as “superior antitumor activities to those of cisplatin”.

Take `CCc1cc(NC(=O)N2CCN(c3cccc(C)c3C)CC2)c(OC)nc1C` [Example 28, 1-[(5-ethyl-2-methoxy-6-methylpyridin-3-yl)aminocarbonyl]-4-(2,3-dimethylphenyl)piperazine]: the LD50 in series [5] (i.p.) is > 1,800; in series [5] (p.o.), > 2,000. Besides, in series [4], the “antitumor activities compared with cisplatin” value is on record as “superior antitumor activities to those of cisplatin”.

For the compound `CCc1cc(NC(=O)N2CCN(c3cccc(O)c3)CC2)c(OC)nc1C` [Example 38, 1-[(5-ethyl-2-methoxy-6-methylpyridin-3-yl)aminocarbonyl]-4-(3-hydroxyphenyl)piperazine], the IC50 in series [1] came out at 1 µg/mL (≈ 2.7 µM); in series [3], 1.4 µg/mL (≈ 3.78 µM). In series [2], the “antitumor activities compared with mitomycin C” value is “same or more excellent antitumor activities”. Further, the “antitumor activities compared with cisplatin” value in series [4] is reported as “superior antitumor activities to those of cisplatin”.

For the compound `CCc1cc(NC(=O)N2CCN(c3cccc(OC(C)=O)c3)CC2)c(OC)nc1C` [Example 41, 1-[(5-ethyl-2-methoxy-6-methylpyridin-3-yl)aminocarbonyl]-4-(3-acetoxyphenyl)piperazine], the results for the IC50 in series [1] and in series [3] were 2 µg/mL (≈ 4.85 µM) and 1.4 µg/mL (≈ 3.39 µM), respectively. In series [2], the “antitumor activities compared with mitomycin C” value is on record as “same or more excellent antitumor activities”. Further, the “antitumor activities compared with cisplatin” value in series [4] is recorded as “superior antitumor activities to those of cisplatin”.

With `CCc1cc(NC(=O)N2CCN(c3cc(C)ccc3OC)CC2)c(OC)nc1C` [Example 47, 1-[(5-ethyl-2-methoxy-6-methylpyridin-3-yl)aminocarbonyl]-4-(2-methoxy-5-methylphenyl)piperazine], the IC50 in series [1] and in series [3] was 0.3 µg/mL (≈ 0.753 µM) in each case. In addition, in series [2], the “antitumor activities compared with mitomycin C” value is listed as “same or more excellent antitumor activities”. Moreover, in series [4], the “antitumor activities compared with cisplatin” value was “superior antitumor activities to those of cisplatin”.

On to `CCc1cc(NC(=O)N2CCN(c3cc(OC)ccc3C)CC2)c(OC)nc1C` [Example 48, 1-[(5-ethyl-2-methoxy-6-methylpyridin-3-yl)aminocarbonyl]-4-(5-methoxy-2-methylphenyl)piperazine], for which the IC50 in series [1] came out at 1.8 µg/mL (≈ 4.52 µM); in series [3], 1.9 µg/mL (≈ 4.77 µM). Moreover, in series [2], the “antitumor activities compared with mitomycin C” value is listed as “same or more excellent antitumor activities”. In series [4], the “antitumor activities compared with cisplatin” value is listed as “superior antitumor activities to those of cisplatin”.

Consider `CCc1cc(NC(=O)N2CCN(c3cc(OC)ccc3Cl)CC2)c(OC)nc1C` [Example 50, 1-[(5-ethyl-2-methoxy-6-methylpyridin-3-yl)aminocarbonyl]-4-(2-chloro-5-methoxyphenyl)piperazine], for which the IC50 came out at 1.5 µg/mL (≈ 3.58 µM) in series [1] and 2 µg/mL (≈ 4.77 µM) in series [3]. Further, in series [4], the “antitumor activities compared with cisplatin” value is “superior antitumor activities to those of cisplatin”.

As for `CCc1cc(NC(=O)N2CCN(c3cccc(O)c3C)CC2)c(OC)nc1C` [Example 55, 1-[(5-ethyl-2-methoxy-6-methylpyridin-3-yl)aminocarbonyl]-4-(3-hydroxy-2-methylphenyl)piperazine], the “antitumor activities compared with cisplatin” value in series [4] was “superior antitumor activities to those of cisplatin”.

For the compound `CCc1cc(CNC(=O)N2CCN(c3ccccc3F)CC2)c(OC)nc1C` [Example 61], in series [5] (i.p.), the LD50 is reported as > 1,687. Further, the “antitumor activities compared with cisplatin” value in series [4] was “superior antitumor activities to those of cisplatin”.

Take `CCc1cc(NC(=O)N2CCN(c3cccc(Cl)c3)CC2)c(NC)nc1C` [Example 91]: the “antitumor activities compared with cisplatin” value in series [4] was “superior antitumor activities to those of cisplatin”.

Take `CCc1cc(NC(=S)N2CCN(c3ccccc3OC)CC2)c(OC)nc1C` [Example 97, 1-[(5-ethyl-2-methoxy-6-methylpyridin-3-yl)aminothiocarbonyl]-4-(2-methoxyphenyl)piperazine]: the IC50 in series [1] was 1.6 µg/mL (≈ 3.99 µM); in series [3], 2 µg/mL (≈ 4.99 µM). The LD50 in series [5] (i.p.) was 1,100. Besides, in series [4], the “antitumor activities compared with cisplatin” value is on record as “superior antitumor activities to those of cisplatin”.

Take `CCc1cc(NC(=S)N2CCN(c3cccc(Cl)c3)CC2)c(OC)nc1C` [Example 98, 1-[(5-ethyl-2-methoxy-6-methylpyridin-3-yl)aminothiocarbonyl]-4-(3-chlorophenyl)piperazine]: the values for the IC50 in series [1] and in series [3] were 2.1 µg/mL (≈ 5.19 µM) and 2 µg/mL (≈ 4.94 µM), respectively. Also, the LD50 in series [5] (i.p.) is > 1,800; in series [5] (p.o.), > 2,000. Further, the “antitumor activities compared with cisplatin” value in series [4] is reported as “superior antitumor activities to those of cisplatin”.

Turning to `CCc1cc(NC(=S)N2CCN(c3cc(OC)cc(OC)c3)CC2)c(OC)nc1C` [Example 100, 1-[(5-ethyl-2-methoxy-6-methylpyridin-3-yl)aminothiocarbonyl]-4-(3,5-dimethoxyphenyl)piperazine], the “antitumor activities compared with cisplatin” value in series [4] is listed as “superior antitumor activities to those of cisplatin”.

In the case of `COc1nc(C)c(C)cc1NC(=O)N1CCN(c2cccc(Cl)c2)CC1` [Example 109, 1-[(5,6-dimethyl-2-methoxypyridin-3-yl)aminocarbonyl]-4-(3-chlorophenyl)piperazine], the LD50 is on record as 2,000 in series [5] (i.p.) and > 2,073 in series [5] (p.o.). The “antitumor activities compared with cisplatin” value in series [4] is “superior antitumor activities to those of cisplatin”.

As for `COc1nc(C)c(C)cc1NC(=O)N1CCN(c2cc(F)cc(F)c2)CC1` [Example 111, 1-[(5,6-dimethyl-2-methoxypyridin-3-yl)aminocarbonyl]-4-(3,5-difluorophenyl)piperazine], the “antitumor activities compared with cisplatin” value in series [4] is “superior antitumor activities to those of cisplatin”.

As to `COc1nc(C)c(C)cc1NC(=O)N1CCN(c2cccc(O)c2)CC1` [Example 113], the “antitumor activities compared with cisplatin” value in series [4] is recorded as “superior antitumor activities to those of cisplatin”.

Take `COc1nc(C)c(C)cc1NC(=O)N1CCN(c2cccc(OC(C)=O)c2)CC1` [Example 115, 1-[(5,6-dimethyl-2-methoxypyridin-3-yl)aminocarbonyl]-4-(3-acetoxyphenyl)piperazine]: the “antitumor activities compared with cisplatin” value in series [4] is given as “superior antitumor activities to those of cisplatin”.

In the case of `COc1nc(C)c(C)cc1NC(=O)N1CCN(c2cccc(C)c2C)CC1` [Example 119, 1-[(5,6-dimethyl-2-methoxypyridin-3-yl)aminocarbonyl]-4-(2,3-xylyl)piperazine], the IC50 in series [1] stood at 2 µg/mL (≈ 5.43 µM); in series [3], 2.2 µg/mL (≈ 5.97 µM). In addition, in series [4], the “antitumor activities compared with cisplatin” value was “superior antitumor activities to those of cisplatin”.

`COc1ccc(C)c(N2CCN(C(=O)Nc3cc(C)c(C)nc3OC)CC2)c1` [Example 121]: the “antitumor activities compared with cisplatin” value in series [4] is “superior antitumor activities to those of cisplatin”.

For `COc1nc(C)c(C)cc1NC(=S)N1CCN(c2cccc(Cl)c2)CC1` [Example 126, 1-[(5,6-dimethyl-2-methoxypyridin-3-yl)aminothiocarbonyl]-4-(3-chlorophenyl) piperazine], the “antitumor activities compared with cisplatin” value in series [4] was “superior antitumor activities to those of cisplatin”.

Turning to `COc1cc(OC)cc(N2CCN(C(=S)Nc3cc(C)c(C)nc3OC)CC2)c1` [Example 129, 1-[(5,6-dimethyl-2-methoxypyridin-3-yl)aminothiocarbonyl]-4-(3,5-dimethoxyphenyl)piperazine], the “antitumor activities compared with cisplatin” value in series [4] is on record as “superior antitumor activities to those of cisplatin”.

As to `C#CCNc1cccnc1N1CCN(C(=O)NCc2cc(CC)c(C)nc2OC)CC1` [Example 144, 1-[(5-ethyl-2-methoxy-6-methylpyridin-3-yl)methylaminocarbonyl]-4-[(3-propargylamino)pyridin-2-yl]piperazine], the “antitumor activities compared with cisplatin” value in series [4] is “superior antitumor activities to those of cisplatin”.
